Assay results: patent publication US20250099420A1, “SMALL MOLECULE MODULATORS OF GPR139 COMPLEX” (University of Florida Research Foundation, Incorporated, priority 2022, published 2025)
Read-outs that look alike come from different tables or passages of the source.

How the values were obtained:
[1] = molecular target: T1, GPR139 (Homo sapiens, UniProt Q6DWJ6); assay: GPR139 Agonist titration / agonist counterscreen assay (calcium detection, HEK-GPR139 cells); format: cell-based; design: expressed in transfected cells; host or cells: HEK Aequorin cells, Maxcyte transient transfection; details: GPR139 Agonist Activity; for Averaged Max % Response (±St. Dev.): activity relative to known control; for EC50: read-out: EC50
T1 sequence (Q6DWJ6 1-353): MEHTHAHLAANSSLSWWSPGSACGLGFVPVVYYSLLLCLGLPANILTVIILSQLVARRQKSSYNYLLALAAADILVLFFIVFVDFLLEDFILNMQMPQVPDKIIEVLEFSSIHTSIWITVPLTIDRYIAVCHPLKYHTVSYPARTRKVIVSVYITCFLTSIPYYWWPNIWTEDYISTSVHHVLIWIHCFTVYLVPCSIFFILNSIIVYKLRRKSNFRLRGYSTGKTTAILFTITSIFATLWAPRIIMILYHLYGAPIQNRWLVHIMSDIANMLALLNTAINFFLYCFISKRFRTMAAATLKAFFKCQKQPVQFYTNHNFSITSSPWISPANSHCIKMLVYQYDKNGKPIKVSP
Protocol: GPR activity was assessed using a calcium detection assay. […] Negative control samples were treated with DMSO. […] Intracellular calcium was measured using Calcium 5.

[2] = system: parental HEK cells; assay: HEK parental Agonist Counterscreen Assay (non-transfected cells); format: cell-based; details: for Averaged Max % Response (±St. Dev.): activity relative to known control
Text: The high control for the agonist counterscreen was Forskolin not acetylcholine.

[3] = values printed in E-notation without unit
[4] = Homo sapiens, HEK293, HEK Agonist Activity section of Table 4 (parental HEK counterscreen)
[5] = Homo sapiens, HEK293, HEK Agonist Activity, parental non-transfected HEK cells

Row | Compound | Averaged Max % Response (±St. Dev.) [1] [%] | Lipophilic Efficiency (logD) ([1]; based on logD) | Lipophilic Efficiency (logP) ([1]; based on logP) | Hill Slope ([1]; fitted dose-response curve) | Efficiency Ligand ([1]; ligand efficiency) | EC50 [1, 3] [nM] | Lipophilic Efficiency (logD) ([2]; HEK Agonist Activity section) | Lipophilic Efficiency (logP) ([2]; HEK Agonist Activity section) | Averaged Max % Response (±St. Dev.) ([2]; HEK Agonist Activity section) [%] | EC50 [2, 4] [nM] | Lipophilic Efficiency (logD) ([2]; HEK Agonist Activity) | Lipophilic Efficiency (logP) ([2]; HEK Agonist Activity) | Averaged Max % Response (±St. Dev.) ([2]; HEK Agonist Activity) [%] | EC50 [2, 5] [nM] | Efficiency Ligand [1] | Hill Slope [1] | Lipophilic Efficiency (logD) [1] | Lipophilic Efficiency (logP) [1] | EC50 ([1]; HEK-GPR139 cells) [nM] | EC50 ([2]; HEK Agonist Activity section of Table 4 (parental HEK counterscreen)) [nM]
1 | COc1ccc(C2(C)NC(=O)N(CC(=O)NCc3ccc(F)cc3)C2=O)cc1 (stereo not drawn) [SR-01000918720] | 107.14 ± 13.14 | 5.56 | 5.56 | 0.42 | 0.37 | 48.9 | 3.10 | 3.10 | 24.77 ± 3.77 | > 14100 |  |  |  |  |  |  |  |  |  | 
2 | COc1ccc(C2(C)NC(=O)C(CC(=O)NCCc3ccccc3)C2=O)cc1 (stereo not drawn) [SR-01000918721] | 107.86 ± 14.78 | 5.70 | 5.70 | 0.48 | 0.38 | 25.6 |  |  |  |  | 2.96 | 2.96 | 9.27 ± 15.15 | > 14100 |  |  |  |  |  | 
3 | CCOc1nn(CC)cc1-c1nnc(SCc2ccc(C(=O)OC)cc2)n1C [SR-01000919746] | 101.90 ± 10.65 | 3.89 | 3.89 | 0.63 | 0.38 | 28.1 |  |  |  |  | 1.19 | 1.19 | −13.54 ± 17.63 | > 14100 |  |  |  |  |  | 
4 | Cc1cc(-c2nnc(NC(=O)CCc3ccccc3)o2)n(C)n1 [SR-01000920602] | 90.23 ± 7.66 |  |  |  |  |  | 3.19 | 3.19 | −28.12 ± 1.91 | > 14100 |  |  |  |  | 0.39 | 0.91 | 4.83 | 4.83 | 325 | 
5 | O=C(CCc1ccccc1)Nc1nnc(Cc2cccs2)o1 [SR-01000920660] | 83.52 ± 6.71 |  |  |  |  |  | 1.83 | 1.83 | −18.29 ± 7.41 | > 14100 |  |  |  |  | 0.41 | 1.17 | 3.39 | 3.39 | 387 | 
6 | Cn1c(CCc2ccc(F)cc2F)nnc1C1=C(O)N=C2CC=CC21 (stereo not drawn) [SR-01000922914] | 76.15 ± 6.21 |  |  |  |  |  | 0.70 | 0.70 | −4.64 ± 6.81 | > 14100 |  |  |  |  | 0.36 | 0.68 | 2.32 | 2.32 | 335 | 
7 | COc1ccc(CCNC(=O)Nc2ccc3c(c2)CCCN3C(=O)C2CC2)cc1 [SR-01000923125] | 81.24 ± 9.74 | 4.30 | 4.30 | 2.01 | 0.37 | 23.7 |  |  |  |  | 1.53 | 1.53 | 32.19 ± 4.93 | > 14100 |  |  |  |  |  | 
8 | CCCN1C(=O)CCc2cc(NC(=O)NCCc3ccc(OC)cc3)ccc21 [SR-01000923206] | 74.00 ± 9.00 |  |  |  |  |  | 1.61 | 1.61 | −32.47 ± 4.02 |  |  |  |  |  | 0.31 | 1.67 | 2.98 | 2.98 | 604 | > 14100
9 | Cc1cccc(NC(=O)NCCc2ccc3c(c2)CCCN3C)c1 [SR-01000923247] | 95.66 ± 12.25 | 3.21 | 3.21 | 0.45 | 0.43 | 37.1 |  |  |  |  | 0.63 | 0.63 | 20.62 ± 4.90 | > 14100 |  |  |  |  |  | 
